Source: patent US12331051B2 (priority 2021, dated 2025)
“Also recorded” adds a separate entry of the source. Read-outs that look alike come from different tables or passages of the source.

How the values were obtained:
[1] = molecular target: CHRM1 (M1 muscarinic receptor) (Homo sapiens, UniProt P11229); assay: BRET-based G protein dissociation assay; assay type: cell-based
5-HT5A receptor = molecular target: T1, 5-HT5A receptor (Homo sapiens, UniProt P47898); assay: G protein dissociation assay; assay type: cell-based
T1 construct: expressed in transfected cells; host or cells: HEK293T

5-HT6 = 5-HT6 (Homo sapiens, UniProt P50406); assay: G protein dissociation and cAMP accumulation second messenger assays; assay type: cell-based; design: expressed in transfected cells; host or cells: HEK293T
[2] = molecular target: CHRM2 (M2 muscarinic receptor) (Homo sapiens, UniProt P08172); assay: BRET-based G protein dissociation assay; assay type: cell-based
5-HT2B receptor = molecular target: T2, 5-HT2B receptor (Homo sapiens, UniProt P41595); assay: 5-HT2B Gq dissociation, β-arrestin2 recruitment and Gq-mediated calcium flux in HEK293T cells; assay type: cell-based
T2 construct: expressed in transfected cells; host or cells: HEK293T; Flp-In 293 T-Rex (calcium flux)
Method: The activity of the “E559 polymorph” at the 5-HT2B receptor was further assessed by 5-HT2B-mediated Gq dissociation (FIG. 14A), 5-HT2B-mediated 0-arrestin2 recruitment (FIG. 14B) and 5-HT2B Gq-mediated calcium flux assessments (FIG. 14C) using bioluminescence resonance energy transfer (BRET) assay in HEK293T cells FIG. 14A to C, 5-HT refers to serotonin). […] In 5-HT2B antagonist assays, the “E559 polymorph” antagonism was measured by its ability to block 5-HT2B receptor activation by 5-HT.

5-HT2A receptor [3] = molecular target: T3, 5-HT2A receptor (Homo sapiens, UniProt P28223)
5-HT4 receptor = molecular target: T4, 5-HT4 receptor (Homo sapiens, UniProt Q13639); assay: G protein dissociation assay; assay type: cell-based; conditions: FIG. 15
T4 construct: expressed in transfected cells; host or cells: HEK293T

[4] = molecular target: T5, ADRa1A (α1A adrenergic receptor) (Homo sapiens, UniProt P35348); assay: BRET-based G protein dissociation assay; assay type: cell-based
T5 sequence (P35348 1-466): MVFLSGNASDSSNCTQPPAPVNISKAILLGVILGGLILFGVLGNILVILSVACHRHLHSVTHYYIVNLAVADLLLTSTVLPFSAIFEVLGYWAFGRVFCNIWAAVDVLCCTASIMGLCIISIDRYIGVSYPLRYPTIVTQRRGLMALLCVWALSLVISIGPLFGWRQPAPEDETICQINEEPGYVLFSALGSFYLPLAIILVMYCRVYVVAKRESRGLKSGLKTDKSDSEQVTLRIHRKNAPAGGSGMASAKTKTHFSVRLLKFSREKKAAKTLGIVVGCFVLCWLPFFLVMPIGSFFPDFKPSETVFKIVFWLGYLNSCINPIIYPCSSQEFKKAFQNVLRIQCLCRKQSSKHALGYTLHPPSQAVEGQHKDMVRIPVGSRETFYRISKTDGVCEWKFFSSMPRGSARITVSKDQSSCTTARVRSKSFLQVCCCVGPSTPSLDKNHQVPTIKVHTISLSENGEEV

D4 dopamine receptor = molecular target: T6, D4 dopamine receptor (Homo sapiens, UniProt P21917); assay: BRET-based G protein dissociation assay; assay type: cell-based
T6 sequence (P21917 1-419): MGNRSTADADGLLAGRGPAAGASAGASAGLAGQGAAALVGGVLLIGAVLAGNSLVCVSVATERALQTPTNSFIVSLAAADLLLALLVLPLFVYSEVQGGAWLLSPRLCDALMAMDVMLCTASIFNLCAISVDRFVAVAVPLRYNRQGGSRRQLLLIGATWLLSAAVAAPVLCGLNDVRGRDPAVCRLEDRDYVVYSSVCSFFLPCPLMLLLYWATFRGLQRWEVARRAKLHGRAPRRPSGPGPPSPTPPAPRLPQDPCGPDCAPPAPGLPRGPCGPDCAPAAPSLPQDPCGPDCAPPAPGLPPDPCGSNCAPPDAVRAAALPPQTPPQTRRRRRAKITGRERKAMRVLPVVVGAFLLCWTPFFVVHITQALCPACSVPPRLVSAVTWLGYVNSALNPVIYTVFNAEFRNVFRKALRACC

5-HT7 receptor = molecular target: T7, 5-HT7 receptor (Homo sapiens, UniProt P34969); assay: G protein dissociation and cAMP accumulation second messenger assays; assay type: cell-based
T7 construct: expressed in transfected cells; host or cells: HEK293T

5-HT2A receptor [5] = molecular target: T3, 5-HT2A receptor; remark: listed apart in the source
D1 dopamine receptor = D1 dopamine receptor (Homo sapiens, UniProt P21728); assay: BRET-based G protein dissociation assay; assay type: cell-based
5-HT2A receptor [6] = molecular target: T3, 5-HT2A receptor; assay: 5-HT2A receptor internalization, NanoBit HiBit-fused 5-HT2A in HEK293T cells; assay type: cell-based; design: expressed in transfected cells; host or cells: HEK293T
Method: To assess the ability of the “E559 polymorph” to induce β-arrestin-mediated 5-HT2A receptor internalization in vitro, the loss of surface expression of 5-HT2A receptor was measured using a NanoBit N-terminal HiBit-fused 5-HT2A construct cloned in HEK293T cells (1:15 ratio 5-HT2A: β-arrestin2). In brief, cells were treated with serial dilution of test compounds for 1 hour or a specified time point.

[7] = molecular target: T8, CHRM4 (M4 muscarinic receptor) (Homo sapiens, UniProt P08173); assay: BRET-based G protein dissociation assay; assay type: cell-based
T8 sequence (P08173 1-479): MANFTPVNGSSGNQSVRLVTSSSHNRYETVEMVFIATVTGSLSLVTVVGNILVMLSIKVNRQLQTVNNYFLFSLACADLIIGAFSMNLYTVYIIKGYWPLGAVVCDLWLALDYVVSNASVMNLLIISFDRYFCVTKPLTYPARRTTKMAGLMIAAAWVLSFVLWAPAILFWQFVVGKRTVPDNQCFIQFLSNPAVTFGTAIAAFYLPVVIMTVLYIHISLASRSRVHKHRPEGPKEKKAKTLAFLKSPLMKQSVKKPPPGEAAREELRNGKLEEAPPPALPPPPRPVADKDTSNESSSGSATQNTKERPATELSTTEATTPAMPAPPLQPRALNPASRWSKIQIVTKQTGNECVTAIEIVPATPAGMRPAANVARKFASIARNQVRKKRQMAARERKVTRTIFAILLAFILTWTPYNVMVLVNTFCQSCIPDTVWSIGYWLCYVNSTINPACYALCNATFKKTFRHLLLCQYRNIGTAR

Chain of D1 dopamine receptor (P21728 whole entry, the tested form may be a part): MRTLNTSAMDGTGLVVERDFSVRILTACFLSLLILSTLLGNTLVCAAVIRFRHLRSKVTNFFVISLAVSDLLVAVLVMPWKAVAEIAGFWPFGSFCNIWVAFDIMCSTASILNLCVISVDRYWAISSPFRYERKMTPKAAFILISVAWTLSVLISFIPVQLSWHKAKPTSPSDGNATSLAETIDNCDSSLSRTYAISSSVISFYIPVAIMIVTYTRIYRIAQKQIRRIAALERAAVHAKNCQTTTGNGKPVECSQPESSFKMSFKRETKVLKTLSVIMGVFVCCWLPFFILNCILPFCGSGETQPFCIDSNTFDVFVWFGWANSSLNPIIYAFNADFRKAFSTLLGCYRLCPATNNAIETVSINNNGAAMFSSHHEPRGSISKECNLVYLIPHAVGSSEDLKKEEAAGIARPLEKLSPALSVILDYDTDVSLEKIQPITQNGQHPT
T3 sequence (P28223 whole entry): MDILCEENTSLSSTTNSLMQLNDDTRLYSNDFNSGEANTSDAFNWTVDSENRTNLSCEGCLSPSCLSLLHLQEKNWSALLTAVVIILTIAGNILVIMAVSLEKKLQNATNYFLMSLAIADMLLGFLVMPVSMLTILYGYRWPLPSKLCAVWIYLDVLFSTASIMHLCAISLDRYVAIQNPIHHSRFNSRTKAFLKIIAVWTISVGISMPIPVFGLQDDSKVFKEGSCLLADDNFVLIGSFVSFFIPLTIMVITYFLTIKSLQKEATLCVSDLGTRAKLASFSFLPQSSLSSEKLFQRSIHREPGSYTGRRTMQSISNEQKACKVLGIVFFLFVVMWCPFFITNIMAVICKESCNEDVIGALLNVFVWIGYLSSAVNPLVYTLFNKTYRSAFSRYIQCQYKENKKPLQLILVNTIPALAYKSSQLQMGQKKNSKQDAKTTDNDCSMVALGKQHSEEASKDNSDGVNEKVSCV
T2 sequence (P41595 whole entry): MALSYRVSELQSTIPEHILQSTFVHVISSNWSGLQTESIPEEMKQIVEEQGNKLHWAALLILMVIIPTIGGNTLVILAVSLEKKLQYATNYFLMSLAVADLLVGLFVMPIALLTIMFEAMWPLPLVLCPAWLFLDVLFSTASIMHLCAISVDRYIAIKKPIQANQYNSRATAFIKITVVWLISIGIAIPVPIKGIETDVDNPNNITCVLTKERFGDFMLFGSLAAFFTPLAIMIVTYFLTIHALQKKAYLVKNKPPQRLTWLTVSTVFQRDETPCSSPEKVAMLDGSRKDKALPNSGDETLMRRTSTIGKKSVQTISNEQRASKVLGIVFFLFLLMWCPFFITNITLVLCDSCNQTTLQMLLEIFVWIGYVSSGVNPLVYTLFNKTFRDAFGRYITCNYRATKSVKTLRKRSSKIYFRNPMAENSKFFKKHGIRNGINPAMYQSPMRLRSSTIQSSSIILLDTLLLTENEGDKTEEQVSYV
T7 sequence (P34969 1-445 isoform P34969-2): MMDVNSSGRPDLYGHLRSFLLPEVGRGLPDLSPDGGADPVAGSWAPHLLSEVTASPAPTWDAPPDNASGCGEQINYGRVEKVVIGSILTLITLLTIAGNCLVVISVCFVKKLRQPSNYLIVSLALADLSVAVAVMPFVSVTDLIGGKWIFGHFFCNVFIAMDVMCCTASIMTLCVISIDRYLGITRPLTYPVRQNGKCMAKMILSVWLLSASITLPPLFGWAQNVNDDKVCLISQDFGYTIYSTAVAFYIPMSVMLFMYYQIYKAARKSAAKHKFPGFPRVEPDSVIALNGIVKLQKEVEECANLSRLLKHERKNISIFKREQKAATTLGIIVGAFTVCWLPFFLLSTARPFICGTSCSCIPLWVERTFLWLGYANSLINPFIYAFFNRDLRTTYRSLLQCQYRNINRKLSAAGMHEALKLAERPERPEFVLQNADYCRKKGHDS
Chain of CHRM2 (M2 muscarinic receptor) (P08172 whole entry): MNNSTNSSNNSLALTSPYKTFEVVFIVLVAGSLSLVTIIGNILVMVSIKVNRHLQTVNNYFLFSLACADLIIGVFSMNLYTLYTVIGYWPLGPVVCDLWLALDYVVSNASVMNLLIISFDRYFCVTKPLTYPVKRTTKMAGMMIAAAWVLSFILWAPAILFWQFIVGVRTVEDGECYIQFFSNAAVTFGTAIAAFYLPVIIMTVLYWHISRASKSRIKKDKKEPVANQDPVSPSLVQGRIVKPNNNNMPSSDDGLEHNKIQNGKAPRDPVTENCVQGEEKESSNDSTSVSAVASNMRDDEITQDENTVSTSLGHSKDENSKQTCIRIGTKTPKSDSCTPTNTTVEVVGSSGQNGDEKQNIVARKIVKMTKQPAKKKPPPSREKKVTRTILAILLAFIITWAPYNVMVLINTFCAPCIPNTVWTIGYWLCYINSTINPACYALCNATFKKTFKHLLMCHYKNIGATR
Chain of CHRM1 (M1 muscarinic receptor) (P11229 whole entry): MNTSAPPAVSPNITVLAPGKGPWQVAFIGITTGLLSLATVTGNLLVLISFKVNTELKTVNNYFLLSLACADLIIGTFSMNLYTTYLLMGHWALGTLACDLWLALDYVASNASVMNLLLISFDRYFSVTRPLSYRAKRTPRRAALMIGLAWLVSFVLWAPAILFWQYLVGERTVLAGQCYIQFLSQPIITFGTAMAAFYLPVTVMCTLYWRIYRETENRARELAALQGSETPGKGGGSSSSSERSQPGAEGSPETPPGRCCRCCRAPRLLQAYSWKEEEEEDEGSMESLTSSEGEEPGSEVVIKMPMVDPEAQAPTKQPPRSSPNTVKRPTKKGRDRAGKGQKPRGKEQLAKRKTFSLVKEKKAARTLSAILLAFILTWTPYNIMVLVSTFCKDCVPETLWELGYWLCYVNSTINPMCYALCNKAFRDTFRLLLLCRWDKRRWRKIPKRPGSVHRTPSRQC
Chain of 5-HT6 (P50406 whole entry): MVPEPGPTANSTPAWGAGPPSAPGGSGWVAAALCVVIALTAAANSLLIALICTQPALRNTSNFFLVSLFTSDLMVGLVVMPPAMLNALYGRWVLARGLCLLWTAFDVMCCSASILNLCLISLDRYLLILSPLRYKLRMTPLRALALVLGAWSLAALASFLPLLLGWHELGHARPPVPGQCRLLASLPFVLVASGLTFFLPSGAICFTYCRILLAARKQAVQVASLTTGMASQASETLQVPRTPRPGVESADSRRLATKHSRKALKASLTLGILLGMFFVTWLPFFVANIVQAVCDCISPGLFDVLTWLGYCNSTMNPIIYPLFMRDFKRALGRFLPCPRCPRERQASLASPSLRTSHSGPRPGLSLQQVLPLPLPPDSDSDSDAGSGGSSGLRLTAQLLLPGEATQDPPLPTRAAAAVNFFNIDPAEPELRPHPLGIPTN
T4 sequence (Q13639 whole entry): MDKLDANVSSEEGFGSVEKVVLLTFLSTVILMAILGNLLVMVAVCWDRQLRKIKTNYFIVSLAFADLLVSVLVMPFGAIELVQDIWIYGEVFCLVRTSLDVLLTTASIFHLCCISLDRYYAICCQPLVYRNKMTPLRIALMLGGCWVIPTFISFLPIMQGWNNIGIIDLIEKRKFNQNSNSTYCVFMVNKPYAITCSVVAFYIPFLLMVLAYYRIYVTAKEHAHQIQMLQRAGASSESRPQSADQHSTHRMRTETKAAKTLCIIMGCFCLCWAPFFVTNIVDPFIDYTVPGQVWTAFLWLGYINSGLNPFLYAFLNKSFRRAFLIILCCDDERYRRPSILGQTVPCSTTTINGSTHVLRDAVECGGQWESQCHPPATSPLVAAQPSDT
T1 sequence (P47898 whole entry): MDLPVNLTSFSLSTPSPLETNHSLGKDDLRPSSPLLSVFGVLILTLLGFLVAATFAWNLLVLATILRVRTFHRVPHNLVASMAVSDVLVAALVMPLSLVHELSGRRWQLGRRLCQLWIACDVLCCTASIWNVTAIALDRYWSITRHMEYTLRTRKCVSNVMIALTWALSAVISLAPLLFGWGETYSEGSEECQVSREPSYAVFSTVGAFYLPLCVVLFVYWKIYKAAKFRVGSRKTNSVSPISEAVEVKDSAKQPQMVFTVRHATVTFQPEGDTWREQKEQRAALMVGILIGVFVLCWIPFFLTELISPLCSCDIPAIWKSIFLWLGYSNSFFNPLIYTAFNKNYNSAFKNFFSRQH

## CCN(CC)C(=O)[C@@H]1C=C2c3cccc4[nH]c(Br)c(c34)C[C@H]2N(C)C1 [E559, (5R, 8R)-2-Bromo-9,10-didehydro-N,N-diethyl-6-methylergoline-8-carboxamide hemi-D-tartrate]
[1]
  EC50: 2.96 nM
5-HT5A receptor; FIG. 15
  functional activity at 5-HT5A: antagonizes this receptor subtype
5-HT6; FIG. 15, FIG. 16A/B
  functional activity at 5-HT6: acts as a very potent partial agonist
[2]
  EC50: 214 nM
5-HT2B receptor; Gq dissociation, β-arrestin2 recruitment, calcium flux
  antagonism of 5-HT-mediated activation of 5-HT2B: antagonism was observed in blocking 5-HT-mediated activation of the 5-HT2B receptor in all three assays
5-HT2B receptor; Gq dissociation, β-arrestin2 recruitment, calcium flux, listed as E559 polymorph
  agonism at 5-HT2B: does not show the agonism seen with LSD; also recorded: inactive as an agonist at the 5-HT2B receptor
5-HT2A receptor [3]; FIG. 15, FIG. 16A/B
  functional (agonist) activity at 5-HT2A: potent partial agonist of 5-HT2A
5-HT2A receptor [3]; Gq dissociation and β-arrestin2 recruitment, FIG. 17A/B
  antagonism of 5-HT activation of 5-HT2A: antagonizes the 5-HT activation
5-HT4 receptor
  functional activity at 5-HT4: lack potent agonist activity at 5-HT4 receptor
[4]
  EC50: 25 nM
  Kb: 56.9 nM
D4 dopamine receptor
  EC50: 1.22 nM
  Emax: 67.3%
5-HT7 receptor; FIG. 15, FIG. 16A/B, listed as E559 polymorph
  functional activity at 5-HT7: act as potent antagonist and inverse agonists; also recorded: exhibits significantly greater inverse agonism than LSD
5-HT2A receptor [5]; percentage of the 5-HT-induced maximal response
  β-Arrestin2 recruitment at the 5-HT2A receptor: weak recruiter of β-Arrestin2
D1 dopamine receptor
  EC50: 0.12 nM
  Kb: 32.9 nM
5-HT2A receptor [6]; single 1 hour treatment
  internalization of the 5-HT2A receptor (loss of surface expression): only exhibits weak internalization of the 5-HT2A receptor
[7]
  EC50: 0.04 nM
  Emax: 15.6%

## CCN(CC)C(=O)[C@@H]1C=C2c3cccc4[nH]cc(c34)C[C@H]2N(C)C1 [LSD, lysergic acid diethylamide, reference compound]
[1]; agonist mode, read-out: EC50
  EC50: 211 nM
5-HT5A receptor
  functional activity at 5-HT5A: acts as a partial agonist
5-HT6
  functional activity at 5-HT6: acts as a very potent partial agonist
[2]; agonist mode, read-out: EC50
  EC50: > 10000 nM
5-HT2B receptor
  agonism at 5-HT2B: shows potent agonism of the 5-HT2B receptor; also recorded: an agonist of 5-HT2B
5-HT2A receptor [3]
  functional (agonist) activity at 5-HT2A: potent almost full 5-HT2A agonist
5-HT4 receptor
  functional activity at 5-HT4: lack potent agonist activity at 5-HT4 receptor
[4]; agonist mode, read-out: EC50
  EC50: 38.5 nM
[4]; percentage of the reference ligand-induced maximal response
  Emax: 24.8%
D4 dopamine receptor; agonist mode, read-out: EC50
  EC50: 4.03 nM
D4 dopamine receptor; percentage of the reference ligand-induced maximal response, read-out: Emax
  Emax: 91.9%
5-HT7 receptor
  functional activity at 5-HT7: act as potent antagonist and inverse agonists
5-HT2A receptor [5]
  β-Arrestin2 recruitment at the 5-HT2A receptor: strong recruiters of β-Arrestin2
D1 dopamine receptor
  EC50: 108 nM
  Emax: 41.3%
5-HT2A receptor [6]
  internalization of the 5-HT2A receptor (loss of surface expression): potent internalization
[7]; agonist mode, read-out: EC50
  EC50: 454 nM
